What was measured:
[1] = set-up: species or system rats; conditions: rat, 100 mg/kg
Description: 5-[4-(3-Carboxy-propionylsulfamoyl)-phenylazo]-2-hydroxy-benzoic acid (1), a compound of the present invention, and sulfasalazine (used as a control; not part of the present invention) were orally dosed to rats. The degradation and the generation of their metabolites after the oral dosing were measured to be able to confirm that (1) undergoes bacterial azo reduction and yields its metabolites, 5-aminosalicylic acid (5-ASA) and C4 sulfanomide.
This experiment was performed to confirm that (1) undergoes a bacterial reduction process and yields its metabolites in in-vivo metabolism. The quantification of its metabolites was also carried out. Sulfasalazine was used as a control since the same azo bond cleavage by bacteria occurs with it, which results in 5-aminosalicylic acid and sulfapyridine as its metabolites.
A total of 7 rats were used for the experiment and methylcellulose was used as a vehicle. The dosage amount was 100 mg/kg per rat. Three rats were dosed with (1) and the other three rats were dosed with sulfasalazine. One rat was used as a control and dosed with methylcellulose. Both urine and feces were collected over 2 days and analyzed by […].
Urine was collected each day and 300 μL of aliquot from each sample was centrifuged for 10 minutes at 5000 g. 80 μL of supernatant was injected for analysis. Feces was also collected, each day and homogenized with a 1:1 mixture of water and acetonitrile. This mixture was then centrifuged for 20 minutes at 5000 g. 80 μL of supernatant was injected for analysis.
A Waters 2690 HPLC was used for sample analysis as follows:
Mobile phase programming: Gradient
Mobile phase: A=Water+0.1% TFA B=Acetonitrile+0.1% TFA
Column: Phenomenex Max RP, 80 Å, 4.6 mm×250 mm
PDA settings: Collected spectrum: 210-400nm Extracted chromatogram: 280 and/or other
Run time/sample: Approximately 50 min.

melting point [°C] | compounds detected, day 2 collection ([1]; in vivo, po) | metabolites detected in urine ([1]; in vivo, po) | parent compound detected in feces ([1]; in vivo, po) | parent compound detected in urine ([1]; in vivo, po) | azo reduction in vivo ([1]; po) | SMILES | degradation after oral dosing ([1]; in vivo) | metabolites detected in feces, day 1 collection ([1]; in vivo, po) | generation of sulfapyridine ([1]; in vivo, po)
192 | No compounds were detected | none of its metabolites were detected | not detected | only a very small amount | undergo azo reduction | O=C(O)CCC(=O)NS(=O)(=O)c1ccc(N=Nc2ccc(O)c(C(=O)O)c2)cc1 [(1), 5-[4-(3-Carboxy-propionylsulfamoyl)-phenylazo]-2-hydroxy-benzoic acid] | degraded and its metabolites were produced as expected | acetylated 5-ASA and C4 sulfanomide were detected | –
178 | – | – | – | – | – | O=C(O)CC(=O)NS(=O)(=O)c1ccc(N=Nc2ccc(O)c(C(=O)O)c2)cc1 [Example 3, 5-[4-(2-Carboxy-Acetylsulfamoyl)-Phenylazo]-2-Hydroxy-Benzoic Acid] | – | – | –
– | No compounds were detected | – | – | – | undergo azo reduction | O=C(O)c1cc(/N=N/c2ccc(S(=O)(=O)Nc3ccccn3)cc2)ccc1O [Sulfasalazine, sulfasalazine, reference compound] | also degraded | Most rats showed acetylated 5-ASA | only one rat showed the generation of sulfapyridine
